ChEMBL document CHEMBL4270495, “Oleanane-, ursane-, and quinone methide friedelane-type triterpenoid derivatives: Recent advances in cancer treatment” (Eur J Med Chem, 2017)
pIC50: −log10 of the molar value.

Tests used:
MDA-MB-231 [1] = assay: Cytotoxicity in human MDA-MB-231 cells assessed as reduction in cell viability incubated for 24 hrs by MTT assay; assay type: functional, cell-based; settings: MDA-MB-231, 24 h
MCF7 [2] = assay: Cytotoxicity in human MCF7 cells assessed as reduction in cell viability incubated for 24 hrs by MTT assay; assay type: functional, cell-based; settings: MCF7, 24 h
HeLa = assay: Cytotoxicity in human HeLa cells assessed as reduction in cell viability incubated for 72 hrs by MTT assay; assay type: functional, cell-based
HT-29 [3] = assay: Cytotoxicity in human HT-29 cells assessed as reduction in cell viability incubated for 72 hrs by MTT assay; assay type: functional, cell-based; settings: HT-29, 72 h
HepG2 = assay: Cytotoxicity in human HepG2 cells assessed as reduction in cell viability incubated for 72 hrs by MTT assay; assay type: functional, cell-based; settings: HepG2, 72 h
TERT-RPE1 = assay: Cytotoxicity in human hTERT-RPE1 cells assessed as reduction in cell viability incubated for 24 hrs by MTT assay; assay type: functional, cell-based; settings: RPE-1, 24 h
MDCK = assay: Cytotoxicity in canine MDCK cells assessed as reduction in cell viability incubated for 72 hrs by MTT assay; assay type: cell-based; settings: Canis lupus familiaris
EA.hy 926 = assay: Cytotoxicity in human EAhy926 cells assessed as reduction in cell viability incubated for 72 hrs by MTT assay; assay type: cell-based; settings: EA.hy 926, 72 h
H9c2 = assay: Cytotoxicity in rat H9c2 cells assessed as reduction in cell viability incubated for 72 hrs by MTT assay; assay type: cell-based; settings: H9c2, 72 h
HCT-116 = assay: Cytotoxicity in human HCT116 cells assessed as reduction in cell viability incubated for 96 hrs by SRB assay; assay type: functional, cell-based; settings: HCT-116, 96 h
HCT-8 = assay: Cytotoxicity in human HCT8 cells assessed as reduction in cell viability incubated for 96 hrs by SRB assay; assay type: functional, cell-based; settings: HCT-8, 96 h
HT-29 [4] = assay: Cytotoxicity in human HT-29 cells assessed as reduction in cell viability incubated for 96 hrs by SRB assay; assay type: functional, cell-based; settings: HT-29, 96 h
CT26 = assay: Cytotoxicity in mouse CT26 cells assessed as reduction in cell viability incubated for 96 hrs by SRB assay; assay type: functional, cell-based; settings: CT26, 96 h
PC-3 = assay: Cytotoxicity in human PC3 cells assessed as reduction in cell viability incubated for 96 hrs by SRB assay; assay type: functional, cell-based; settings: PC-3, 96 h
DU-145 = assay: Cytotoxicity in human DU145 cells assessed as reduction in cell viability incubated for 96 hrs by SRB assay; assay type: functional, cell-based; settings: DU-145, 96 h
MDA-MB-231 [5] = assay: Cytotoxicity in human MDA-MB-231 cells assessed as reduction in cell viability incubated for 96 hrs by SRB assay; assay type: functional, cell-based; settings: MDA-MB-231, 96 h
4T1 = assay: Cytotoxicity in mouse 4T1 cells assessed as reduction in cell viability incubated for 96 hrs by SRB assay; assay type: functional, cell-based; settings: 4T1, 96 h
Bel-7402 = assay: Cytotoxicity in human Bel7402 cells assessed as reduction in cell viability incubated for 72 hrs by MTT assay; assay type: functional, cell-based; settings: Bel-7402, 72 h
H4 = assay: Cytotoxicity in human H4 cells assessed as reduction in cell viability incubated for 72 hrs by MTT assay; assay type: functional, cell-based; settings: H4, 72 h
MCF7 [6] = assay: Cytotoxicity in human MCF7 cells assessed as reduction in cell viability incubated for 48 hrs by SRB assay; assay type: functional, cell-based; settings: MCF7, 48 h
MDA-MB-231 [7] = assay: Cytotoxicity in human MDA-MB-231 cells assessed as reduction in cell viability incubated for 48 hrs by SRB assay; assay type: functional; settings: MDA-MB-231, 48 h

CC1(C)[C@@H](O)CC[C@]2(C)[C@H]3C(=O)C=C4[C@H]5C[C@@](C)(C(=O)O)CC[C@]5(C)CC[C@@]4(C)[C@]3(C)CC[C@@H]12
pIC50 (MDA-MB-231 [1]): 4.07
pIC50 (MCF7 [2]): 4.12
pIC50 (HeLa): < 4.30
pIC50 (HT-29 [3]): < 4.30
pIC50 (HepG2): < 4.30
pIC50 (TERT-RPE1): 4.20
pIC50 (MDCK): < 4.00
pIC50 (EA.hy 926): < 4.00
pIC50 (H9c2): < 4.00
pIC50 (HCT-116): 4.12
pIC50 (HCT-8): 4.09
pIC50 (HT-29 [4]): 4.11
pIC50 (CT26): 4.15
pIC50 (PC-3): 4.06
pIC50 (DU-145): 3.87
pIC50 (MDA-MB-231 [5]): 3.99
pIC50 (4T1): 4.02

COc1cccc(/C=C/C(=O)O[C@H]2CC[C@]3(C)[C@H]4C(=O)C=C5[C@H]6C[C@@](C)(C(=O)O)CC[C@]6(C)CC[C@@]5(C)[C@]4(C)CC[C@H]3C2(C)C)c1
pIC50 (HeLa): 4.76
pIC50 (HT-29 [3]): 4.83
pIC50 (HepG2): 4.90
pIC50 (MDCK): 4.65
pIC50 (EA.hy 926): 4.51
pIC50 (H9c2): < 4.30

COc1cccc(/C=C/C(=O)O[C@H]2CC[C@]3(C)[C@H]4C(=O)C=C5[C@H]6C[C@@](C)(C(=O)O)CC[C@]6(C)CC[C@@]5(C)[C@]4(C)CC[C@H]3C2(C)C)c1OC
pIC50 (HeLa): 4.65
pIC50 (HT-29 [3]): 4.61
pIC50 (HepG2): 4.61
pIC50 (MDCK): 4.47
pIC50 (EA.hy 926): 4.60
pIC50 (H9c2): < 4.30

COC(=O)[C@]1(C)CC[C@]2(C)CC[C@]3(C)C4=CC(c5cn(C)c6cc(Cl)ccc56)c5c(cc(OC)c(OC)c5C)C4(C)CC[C@@]3(C)[C@H]2C1 (single isomer, unassigned)
pIC50 (Bel-7402): 8.00
pIC50 (H4): 5.69

CC(=O)Oc1cc2c(c(C)c1OC(C)=O)C(Sc1ccc(C)cc1)C=C1C2(C)CC[C@@]2(C)[C@@H]3C[C@](C)(C(=O)O)CC[C@]3(C)CC[C@]12C (single isomer, unassigned)
pIC50 (Bel-7402): 6.35
pIC50 (H4): 6.43

COC(=O)[C@]1(C)CC[C@]2(C)CC[C@]3(C)C4=CC(c5c[nH]c6ccc(OC)cc56)c5c(cc(OC)c(OC)c5C)C4(C)CC[C@@]3(C)[C@H]2C1 (single isomer, unassigned)
pIC50 (Bel-7402): 6.29
pIC50 (H4): 5.34

COc1ccccc1/C=C/C(=O)O[C@H]1CC[C@]2(C)[C@H]3C(=O)C=C4[C@H]5C[C@@](C)(C(=O)O)CC[C@]5(C)CC[C@@]4(C)[C@]3(C)CC[C@H]2C1(C)C
pIC50 (HeLa): 4.61
pIC50 (HT-29 [3]): 4.65
pIC50 (HepG2): 4.49
pIC50 (MDCK): 4.64
pIC50 (EA.hy 926): < 4.30
pIC50 (H9c2): < 4.30

Cc1ccc(/C=C/C(=O)O[C@H]2CC[C@]3(C)[C@H]4C(=O)C=C5[C@H]6C[C@@](C)(C(=O)O)CC[C@]6(C)CC[C@@]5(C)[C@]4(C)CC[C@H]3C2(C)C)cc1
pIC50 (HeLa): 4.85
pIC50 (HT-29 [3]): 4.66
pIC50 (HepG2): 4.66
pIC50 (MDCK): 4.42
pIC50 (EA.hy 926): 4.56
pIC50 (H9c2): < 4.30

Cc1c(O)c(O)cc2c1C(c1c[nH]c3cc(Cl)ccc13)C=C1C2(C)CC[C@@]2(C)[C@H]3C[C@](C)(C(=O)O)CC[C@]3(C)CC[C@]12C (single isomer, unassigned)
pIC50 (Bel-7402): 5.19
pIC50 (H4): 5.11

COc1cc(/C=C/C(=O)O[C@H]2CC[C@]3(C)[C@H]4C(=O)C=C5[C@H]6C[C@@](C)(C(=O)O)CC[C@]6(C)CC[C@@]5(C)[C@]4(C)CC[C@H]3C2(C)C)cc(OC)c1OC
pIC50 (HeLa): 4.51
pIC50 (HT-29 [3]): 4.59
pIC50 (HepG2): 4.66
pIC50 (MDCK): 4.56
pIC50 (EA.hy 926): 4.51
pIC50 (H9c2): 4.32

COc1ccc2[nH]cc(C3C=C4C(C)(CC[C@@]5(C)[C@H]6C[C@](C)(C(=O)O)CC[C@]6(C)CC[C@]45C)c4cc(O)c(O)c(C)c43)c2c1 (single isomer, unassigned)
pIC50 (Bel-7402): 4.34
pIC50 (H4): 4.61

C[C@H]1[C@H](C)CC[C@]2(C(=O)OCCCn3cc(COC(=O)[C@]45CC[C@@H](C)[C@H](C)[C@@H]4C4=CC[C@@H]6[C@@]7(C)C[C@H](O)[C@H](O)[C@](C)(CO)[C@@H]7CC[C@]6(C)[C@]4(C)CC5)cn3)CC[C@]3(C)C(=CC[C@@H]4[C@@]5(C)CC[C@H](O)C(C)(C)[C@@H]5CC[C@]43C)[C@H]12
GI50 (MCF7 [6]): 12.8 µM
GI50 (MDA-MB-231 [7]): 7.4 µM

CC(=O)Nc1ccc(SC2C=C3C(C)(CC[C@@]4(C)[C@@H]5C[C@](C)(C(=O)O)CC[C@]5(C)CC[C@]34C)c3cc(OC(C)=O)c(OC(C)=O)c(C)c32)cc1 (single isomer, unassigned)
pIC50 (Bel-7402): 6.34
pIC50 (H4): 6.46

COc1ccc(/C=C/C(=O)O[C@H]2CC[C@]3(C)[C@H]4C(=O)C=C5[C@H]6C[C@@](C)(C(=O)O)CC[C@]6(C)CC[C@@]5(C)[C@]4(C)CC[C@H]3C2(C)C)c(OC)c1OC
pIC50 (HeLa): 5.07
pIC50 (HT-29 [3]): 4.82
pIC50 (HepG2): 4.67
pIC50 (MDCK): 4.50
pIC50 (EA.hy 926): 4.56
pIC50 (H9c2): < 4.30

Cc1ccc2c(C3C=C4C(C)(CC[C@@]5(C)[C@H]6C[C@](C)(C(=O)O)CC[C@]6(C)CC[C@]45C)c4cc(O)c(O)c(C)c43)c[nH]c2c1 (single isomer, unassigned)
pIC50 (Bel-7402): 5.26
pIC50 (H4): 5.18

C[C@H]1[C@H](C)CC[C@]2(C(=O)O)CC[C@]3(C)C(=CC[C@@H]4[C@@]5(C)C[C@@H](O)[C@H](O)C(C)(C)[C@@H]5CC[C@]43C)[C@H]12 [COROSOLIC ACID]
GI50 (MCF7 [6]): 18.5 µM
GI50 (MDA-MB-231 [7]): 15.3 µM

COc1ccc(/C=C/C(=O)O[C@H]2CC[C@]3(C)[C@H]4C(=O)C=C5[C@H]6C[C@@](C)(C(=O)O)CC[C@]6(C)CC[C@@]5(C)[C@]4(C)CC[C@H]3C2(C)C)cc1
pIC50 (HeLa): 4.63
pIC50 (HT-29 [3]): 4.48
pIC50 (HepG2): 4.51
pIC50 (MDCK): 4.66
pIC50 (EA.hy 926): < 4.30
pIC50 (H9c2): 4.44

CC(=O)CC1C=C2C(C)(CC[C@@]3(C)[C@@H]4C[C@](C)(C(=O)O)CC[C@]4(C)CC[C@]23C)c2cc(OC(C)=O)c(OC(C)=O)c(C)c21 (single isomer, unassigned)
pIC50 (Bel-7402): < 3.82
pIC50 (H4): < 3.82

C[C@H]1[C@H](C)CC[C@]2(C(=O)OCCCn3cc(COC(=O)[C@]45CC[C@@H](C)[C@H](C)[C@@H]4C4=CC[C@@H]6[C@@]7(C)C[C@H](O)[C@H](O)C(C)(C)[C@@H]7CC[C@]6(C)[C@]4(C)CC5)cn3)CC[C@]3(C)C(=CC[C@@H]4[C@@]5(C)CC[C@H](O)C(C)(C)[C@@H]5CC[C@]43C)[C@H]12
GI50 (MCF7 [6]): 12 µM
GI50 (MDA-MB-231 [7]): 4.7 µM

CC1(C)[C@@H](OC(=O)/C=C/c2ccccc2)CC[C@]2(C)[C@H]3C(=O)C=C4[C@H]5C[C@@](C)(C(=O)O)CC[C@]5(C)CC[C@@]4(C)[C@]3(C)CC[C@@H]12
pIC50 (HeLa): 4.63
pIC50 (HT-29 [3]): 4.65
pIC50 (HepG2): 4.61
pIC50 (MDCK): 4.65
pIC50 (EA.hy 926): 4.54
pIC50 (H9c2): 4.34

COc1ccc(OC)c(/C=C/C(=O)O[C@H]2CC[C@]3(C)[C@H]4C(=O)C=C5[C@H]6C[C@@](C)(C(=O)O)CC[C@]6(C)CC[C@@]5(C)[C@]4(C)CC[C@H]3C2(C)C)c1
pIC50 (HeLa): 4.55
pIC50 (HT-29 [3]): 4.58
pIC50 (HepG2): 4.59
pIC50 (MDCK): < 4.30
pIC50 (EA.hy 926): 4.35
pIC50 (H9c2): < 4.30

COc1cccc2c1C(=O)c1c(O)c3c(c(O)c1C2=O)C[C@@](O)(C(=O)CO)C[C@@H]3O[C@H]1C[C@H](N)[C@H](O)[C@H](C)O1 [DOXORUBICIN]
pIC50 (MCF7 [2]): 6.31
pIC50 (TERT-RPE1): 5.56
GI50 (MCF7 [6]): 5.7 µM
GI50 (MDA-MB-231 [7]): 4.1 µM
